Entries after “also recorded” stand apart in the source; their conditions may differ. Like-named read-outs stand apart in the source and are kept apart here.
Key:
[1] = system: tumor cell Hsp90 complexes (SKBr3 human breast cancer lysate); assay: Hsp90 fluorescence polarization competition assay (GM-cy3B displacement) in SKBr3 cancer-cell lysate; assay type: binding; details: read-out: Affinity for Hsp90 (FP)
Description: The fraction of tracer bound to Hsp90 was correlated to the mP value and plotted against values of competitor concentrations. The inhibitor concentration at which 50% of bound GM was displaced was obtained by fitting the data.

[2] = system: K562 cells; assay: Growth inhibition assay (Alamar Blue); assay type: cell-based; details: Homo sapiens, K562, 72 h, read-out: IC50 Growth inhibition
Description: (§1) Having shown that each of the prepared biotinylated molecules retained good affinity for Hsp90, we next evaluated these compounds in two functional read-outs that together measure that the probe has entered a live cancer cell and once inside the cell, has bound to a substantial fraction of oncogenic Hsp90 molecules. Specifically, K562 is a human leukemia cell line dependent on Hsp90 for survival. Thus, in such cells, occupancy of Hsp90’s regulatory pocket by small molecules results in inhibition of its cancer-sheltering properties, leading to cell-growth inhibition associated with degradation of Hsp90-chaperoned onco-proteins. These, such as is the case for Raf-1 in K562 cells, become ubiquitinated and targeted for proteasomal degradation leading to a decrease in their steady-state levels (Figure 2a, Raf-1).
Growth inhibition assay. The effect of compounds on cell growth was evaluated with the Alamar Blue assay. In summary, K562 cells were plated at 20,000 cells/well on Costar 96-well plates. Treatment with the probes added at the indicated concentrations in triplicate wells was performed on the subsequent day and lasted for 72 h. The Alamar Blue reagent resazurin (440 μM stock) was added at the end of the treatment to result in a final concentration of 50 μM. Plates were read 6 h later by using the Analyst GT instrument (Fluorescence intensity mode, excitation 530 nm, emission 580 nm, with 560 nm dichroic mirror). Results were analyzed in SoftMax Pro. The percentage of cell growth inhibition was calculated by comparing fluorescence readings obtained from treated versus control cells, accounting for the initial cell population (time zero). The IC50 was calculated as the drug concentration that inhibits cell growth by 50%.

[3] = target: T1, Grp94 (Homo sapiens, UniProt P14625); details: ref Chiosis G, personal communication; cited from earlier work
T1 sequence (P14625 22-803, species assumed): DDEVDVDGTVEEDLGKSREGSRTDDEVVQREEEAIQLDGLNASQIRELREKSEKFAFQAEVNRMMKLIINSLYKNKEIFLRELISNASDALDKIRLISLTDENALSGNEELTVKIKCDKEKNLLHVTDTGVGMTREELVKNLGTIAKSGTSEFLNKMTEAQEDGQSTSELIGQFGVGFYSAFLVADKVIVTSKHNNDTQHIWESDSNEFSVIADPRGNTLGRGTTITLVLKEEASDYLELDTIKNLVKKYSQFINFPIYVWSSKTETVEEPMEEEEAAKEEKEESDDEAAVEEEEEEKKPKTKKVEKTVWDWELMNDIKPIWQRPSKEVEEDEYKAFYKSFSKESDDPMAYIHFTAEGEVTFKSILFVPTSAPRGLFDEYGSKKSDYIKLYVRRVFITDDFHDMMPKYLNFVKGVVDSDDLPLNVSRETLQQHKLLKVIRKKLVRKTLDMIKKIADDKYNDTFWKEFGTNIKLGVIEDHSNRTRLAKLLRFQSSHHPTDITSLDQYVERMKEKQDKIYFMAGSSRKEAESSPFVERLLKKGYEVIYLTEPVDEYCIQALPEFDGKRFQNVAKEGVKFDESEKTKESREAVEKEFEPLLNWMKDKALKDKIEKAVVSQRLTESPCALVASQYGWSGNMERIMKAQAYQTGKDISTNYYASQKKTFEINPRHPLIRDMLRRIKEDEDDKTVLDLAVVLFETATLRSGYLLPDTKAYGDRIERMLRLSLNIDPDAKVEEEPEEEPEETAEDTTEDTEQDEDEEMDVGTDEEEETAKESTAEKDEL

[4] = system: Raf-1 (Hsp90 onco-client) in K562 cells; assay: Raf-1 steady-state levels by Western blot; assay type: cell-based, human; details: for Cancer-cell permeability / uptake: judged from Raf-1 degradation and growth inhibition in K562 cells; for Effect on Raf-1 steady-state levels (Raf-1 degradation): K562 cells, 24 h, probes at 5, 10 and 20 µM
Description: as §1
Western blotting. The K562 cell line was purchased from the American Type Culture Collection (Manassas, VA) and cultured in Roswell Park Memorial Institute (RPMI) supplemented with 10% fetal bovine serum, 1% L-glutamine, 1% penicillin and streptomycin. Cells were plated for 24 h prior to treatment for the indicated times with DMSO (vehicle) or with the indicated compounds. Protein extracts were prepared in 50 mM Tris pH 7.4, 150 mM NaCl and 1% NP-40 lysis buffer. Protein concentrations were measured by using the BCA kit (Pierce) according to the manufacturer's instructions. Protein lysates (50 μg) were resolved by SDS-PAGE, transferred onto nitrocellulose membrane and incubated with an anti-Raf-1 antibody from rabbit (1:500, sc-133, Santa Cruz) or anti-β-actin from mouse (1:2,500, A1978, Sigma-Aldrich). Membranes were then incubated with the corresponding peroxidase-conjugated secondary antibody (1:3,000 dilution) and visualized by the ECL detection reagent (Amersham).

[5] = system: Hsp90; assay: Chemical precipitation (affinity purification on streptavidin beads) from K562 cell lysates; parameters: species or system human; details: high-salt wash, Coomassie stain, 10, 25 and 50 µM
Protocol: Having identified which compounds were capable or not of permeating live cancer cells, we next wanted to determine whether the chain length was optimal to maintain concomitant binding to Hsp90 and streptavidin, so as to allow for isolation and identification of Hsp90/onco-client complexes from cancer cells. For this purpose, K562 lysates (Figure 2b and c) were incubated with the biotinylated ligands and the complexes captured on streptavidin beads. To test for the probe’s selectivity, pull-downs were performed with increasing concentrations of biotinylated derivatives (10, 25 and 50 µM; Figure 2c). Additionally, affinity-purified complexes were washed with high-salt buffer to remove Hsp90-bound co-chaperones and client proteins (Figure 2b and c).
(§2) Chemical precipitation from cell lysates. K562 cells were sonicated in 20 mM HEPES, pH 7.3, 50 mM KCl, 5 mM MgCl2, 20 mM Na2MoO4, and 0.01% NP40 lysis buffer containing added protease inhibitors. Affinity beads were prepared by addition of the biotinylated probes to the streptavidin agarose resin (40 μL) (Thermo Scientific), which was first washed three times with the lysis buffer. […] The protein extract (500 μg) was then added to the probe-bound beads, and samples were incubated at 4 °C overnight. Following five washes with lysis buffer, the protein isolates were subjected to SDS-PAGE.

[6] = system: Hsp90 and Hsp90/Raf-1 complexes; assay: Chemical precipitation (affinity purification on streptavidin beads) from live K562 cells; assay type: cell-based, human; details: for Isolation of Hsp90 from live K562 cells (band at 90 kDa, Coomassie): live K562 cells incubated 4 h, then permeabilized, streptavidin beads; for Isolation of Hsp90 in complex with onco-client protein Raf-1: live K562 cells, Coomassie and Raf-1 immunoblot
Protocol: To test for the probes’ ability to isolate Hsp90 in secondary and tertiary complexes, such as those containing onco-client proteins, affinity purifications were also performed from live K562 cancer cells (Figure 2d). In such a case, the biotinylated tool is added to live cells where the compound binds to Hsp90 in an onco-client-bound conformation, locking and preserving the endogenous Hsp90/protein complexes throughout the subsequent experimental steps (i.e., permeabilization). In contrast, when adding a biotinylated tool to cell homogenates, one may encounter two potential limitations. First, due to the dynamic nature of the Hsp90/client protein interactions, the endogenous complexes may be lost during the homogenization process and thus, pull-downs from homogenates may miss important interactors. Second, during homogenization, certain proteins may lose their well-regulated conformation and potentially aggregate. Such misfolded proteins are prone to be captured by chaperones resulting in “false positives” (i.e., nonendogenous Hsp90 client proteins). False positives increase the “background” on the affinity resin, and the higher the background, the poorer the identification of relevant endogenous Hsp90 complexes will be. Therefore, while it is true that following the addition of the biotinylated tool to cells, these are permeabilized or fixed/permeabilized and thus no longer alive, the capture of the oncogenic Hsp90 complexes takes place in the live cell.
Consequently, in live-cell experiments, cells were first incubated with the biotinylated PU-H71 derivatives to trap and maintain the onco-client complexed to Hsp90. Next, cells were ruptured into a physiological buffer containing molybdate. The purpose of this step is to release the proteins from the cell yet maintain the Hsp90/onco-client protein complexes intact. Following capture of these complexes on the streptavidin beads, complexes were applied to a denaturing gel, then probed by both Coomassie stain (Figure 2d, top panel) and immunoblot (Figure 2d, bottom panel Raf-1 blot).
Chemical precipitation from cells. K562 cells were treated with the indicated compounds for 4 h, after which cells were collected and washed three times with PBS. Protein extracts were prepared by sonicating cells in 20 mM HEPES, pH 7.3, 50 mM KCl, 5 mM MgCl2, 20 mM Na2MoO4, 0.01% NP40 lysis buffer. Streptavidin agarose beads (40 μL) (Thermo Scientific) were washed three times with the lysis buffer and added to 500 μg of the total cellular protein extract diluted in lysis buffer to a final volume of 120 μL. Samples were incubated at 4 °C for 1 h, washed five times with the lysis buffer (or high salt buffer containing 1 M NaCl added to the lysis buffer) and applied to SDS-PAGE. Gels were stained with Coomassie blue (BioRad) according to the manufacturer's instructions.

[7] = system: Hsp90; assay: Affinity for Hsp90 paralogues: cytosolic Hsp90; assay type: binding; details: paralogue comparison
[8] = target: T1, Grp94; assay: Affinity for Hsp90 paralogues: Grp94; assay type: binding; details: paralogue comparison
[9] = system: cytosolic Hsp90 versus Grp94; assay: Paralogue selectivity of affinity purification from K562 lysates (Western blot); parameters: species or system human; details: overnight, probes 50 µM
Protocol: as §2

SMILES | IC50 ([2]; Figure 2a, Alamar Blue) [nM] | Affinity for Grp94 [8] [nM] | EC50 [1] [nM] | IC50 [2] [nM] | Binding to cytosolic and ER Hsp90 paralogues [3] | Cancer-cell permeability / uptake [4] | Isolation of Hsp90 from K562 lysates on streptavidin beads [5] | Effect on Raf-1 steady-state levels (Raf-1 degradation) [4] | Isolation of Hsp90 from live K562 cells (band at 90 kDa, Coomassie) [6] | Isolation of Hsp90 in complex with onco-client protein Raf-1 [6] | Affinity for Hsp90 [7] [nM] | Preference in affinity purification of cytosolic Hsp90 over Grp94 [9]
CC(C)NCCCn1c(Sc2cc3c(cc2I)OCO3)nc2c(N)ncnc21 [1a, PU-H71] | – | – | 24.5 | 80 | binds equally well to the cytosolic and the ER paralogues | – | – | – | – | – | – | –
NCCCn1c(Sc2cc3c(cc2I)OCO3)nc2c(N)ncnc21 [1b] | – | – | 26 | – | – | – | – | – | – | – | – | –
Nc1ncnc2c1nc(Sc1cc3c(cc1I)OCO3)n2CCCNCCOCCOCCOCCNC(=O)CCCC[C@@H]1SC[C@@H]2NC(=O)N[C@@H]21 [2a] | 5000 | – | – | – | – | poor cancer-cell permeability | modest probe for affinity purifications | – | – | – | – | –
Nc1ncnc2c1nc(Sc1cc3c(cc1I)OCO3)n2CCCNC(=O)CCCC[C@@H]1SC[C@@H]2NC(=O)N[C@@H]21 [2c] | 250 | – | – | – | – | – | unable to affinity purify Hsp90 | almost complete Raf-1 degradation | faint band or no band at 90 kDa | – | – | –
CC(C)N(CCCn1c(Sc2cc3c(cc2I)OCO3)nc2c(N)ncnc21)C(=O)CCCCCNC(=O)CCCC[C@@H]1SC[C@@H]2NC(=O)N[C@@H]21 [2d] | 2190 | – | – | – | – | – | – | almost complete Raf-1 degradation | faint band or no band at 90 kDa | – | – | –
Nc1ncnc2c1nc(Sc1cc3c(cc1I)OCO3)n2CCCNC(=O)CCCCCNC(=O)CCCCCNC(=O)CCCC[C@@H]1SC[C@@H]2NC(=O)N[C@@H]21 [2g] | 1130 | 451 | – | – | – | substantially taken up by the cancer cell; also recorded: good permeability | isolated substantial amounts of Hsp90 | almost complete Raf-1 degradation | – | Most efficient | 45 | substantial preference
CC(C)N(CCCn1c(Sc2cc3c(cc2I)OCO3)nc2c(N)ncnc21)C(=O)CCOCCOCCOCCOCCNC(=O)CCCC[C@@H]1SC[C@@H]2NC(=O)N[C@@H]21 [2h] | 7010 | 313 | – | – | – | – | isolated substantial amounts of Hsp90 | failed to exhibit such properties; also recorded: failed to substantially degrade Raf-1 | – | Most efficient | 137 | substantial preference

Further compounds by falling IC50 ([2]; Figure 2a, Alamar Blue), results first:

IC50 ([2]; Figure 2a, Alamar Blue) [nM] | Affinity for Grp94 [8] [nM] | SMILES | EC50 [1] [nM] | IC50 [2] [nM] | Binding to cytosolic and ER Hsp90 paralogues [3] | Cancer-cell permeability / uptake [4] | Isolation of Hsp90 from K562 lysates on streptavidin beads [5] | Effect on Raf-1 steady-state levels (Raf-1 degradation) [4] | Isolation of Hsp90 from live K562 cells (band at 90 kDa, Coomassie) [6] | Isolation of Hsp90 in complex with onco-client protein Raf-1 [6] | Affinity for Hsp90 [7] [nM] | Preference in affinity purification of cytosolic Hsp90 over Grp94 [9]
8590 | 226 | Nc1ncnc2c1nc(Sc1cc3c(cc1I)OCO3)n2CCCNC(=O)CCOCCOCCOCCOCCNC(=O)CCCC[C@@H]1SC[C@@H]2NC(=O)N[C@@H]21 [2i] | – | – | – | – | isolated substantial amounts of Hsp90 | failed to exhibit such properties; also recorded: failed to substantially degrade Raf-1 | – | Most efficient | 83 | substantial preference
4960 | 210 | CC(C)N(CCCn1c(Sc2cc3c(cc2I)OCO3)nc2c(N)ncnc21)C(=O)CCCCCNC(=O)CCCCCNC(=O)CCCC[C@@H]1SC[C@@H]2NC(=O)N[C@@H]21 [2f] | – | – | – | – | isolated substantial amounts of Hsp90 | failed to exhibit such properties; also recorded: to some degree | – | Most efficient | 98 | substantial preference
2630 | – | CC(C)N(CCCn1c(Sc2cc3c(cc2I)OCO3)nc2c(N)ncnc21)C(=O)CCCC[C@@H]1SC[C@@H]2NC(=O)N[C@@H]21 [2b] | – | – | – | – | unable to affinity purify Hsp90 | almost complete Raf-1 degradation | faint band or no band at 90 kDa | – | – | –
1350 | – | Nc1ncnc2c1nc(Sc1cc3c(cc1I)OCO3)n2CCCNC(=O)CCCCCNC(=O)CCCC[C@@H]1SC[C@@H]2NC(=O)N[C@@H]21 [2e] | – | – | – | – | unable to affinity purify Hsp90 | almost complete Raf-1 degradation | faint band or no band at 90 kDa | – | – | –

— publication PMC3628991, “Synthesis and evaluation of cell-permeable biotinylated PU-H71 derivatives as tumor Hsp90 probes” (Beilstein Journal of Organic Chemistry, 2013)
